Consider one compound from publication PMC8371461 (Frontiers in Pharmacology, 2021).

What all share (type): binding
The target in assay [1] is T1, IKK-epsilon (Homo sapiens, UniProt Q14164).
T1 construct: purchased DiscoverX (KINOMEscan)
Description: kinome scan. Conditions: 10 µM.

Assay [2] concerns the target T2, PLK4 (Homo sapiens, UniProt O00444).
T2 construct: purchased DiscoverX (KINOMEscan)
Description: kinome scan. Conditions: 10 µM.

The target of assay [3] is T3, DYRK2 (Homo sapiens, UniProt Q92630).
T3 construct: purchased DiscoverX (KINOMEscan)
T3 sequence (Q92630 1-601): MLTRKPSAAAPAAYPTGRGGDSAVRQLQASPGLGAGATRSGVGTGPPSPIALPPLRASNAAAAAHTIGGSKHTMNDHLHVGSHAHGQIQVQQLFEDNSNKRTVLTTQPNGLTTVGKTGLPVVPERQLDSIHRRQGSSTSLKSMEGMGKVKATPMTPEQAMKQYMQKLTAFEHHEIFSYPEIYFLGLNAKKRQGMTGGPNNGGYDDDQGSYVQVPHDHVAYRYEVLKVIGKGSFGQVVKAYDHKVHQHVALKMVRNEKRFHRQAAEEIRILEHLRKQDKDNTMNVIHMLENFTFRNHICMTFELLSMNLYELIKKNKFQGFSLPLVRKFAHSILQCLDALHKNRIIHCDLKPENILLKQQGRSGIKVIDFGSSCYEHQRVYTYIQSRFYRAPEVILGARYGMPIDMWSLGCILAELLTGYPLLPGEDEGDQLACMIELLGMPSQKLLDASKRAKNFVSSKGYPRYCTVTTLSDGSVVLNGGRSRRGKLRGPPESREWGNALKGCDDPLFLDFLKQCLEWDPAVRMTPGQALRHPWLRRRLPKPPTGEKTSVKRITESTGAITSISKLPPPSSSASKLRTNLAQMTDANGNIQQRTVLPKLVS
Nature of the assay: Kd select analysis (DiscoverX). The protocol: (§1) Hits are identified by an ultra-sensitive quantitative PCR detecting the specific DNA tag linked to each kinase (Supplementary Figure S2). The drug is used at a concentration of 10 µM and results are expressed as the percentage of signal (kinase PCR detection) with respect to DMSO control conditions. Thirteen hits were identified, with a signal reduction ranging from 0 to 27% (Table 3). Full raw data are presented in Supplementary Table S4. Interactions between 0 and 20% of reduction were considered to be the most significant ones. […] A sub-micromolar affinity (Kd<1 µM) was only seen with two PIKs (PIP4K2C, PI4KB) and GAK (Table 4). Inhibitions curves from these compounds are shown in Supplementary Figure S3.

Assay [4] concerns the target T4, GAK (Homo sapiens, UniProt O14976).
T4 construct: T7 phage fusion (kinase-tagged phage); purchased DiscoverX; host or cells: BL21-derived E. coli (T7 phage)
T4 sequence (O14976 1-1311): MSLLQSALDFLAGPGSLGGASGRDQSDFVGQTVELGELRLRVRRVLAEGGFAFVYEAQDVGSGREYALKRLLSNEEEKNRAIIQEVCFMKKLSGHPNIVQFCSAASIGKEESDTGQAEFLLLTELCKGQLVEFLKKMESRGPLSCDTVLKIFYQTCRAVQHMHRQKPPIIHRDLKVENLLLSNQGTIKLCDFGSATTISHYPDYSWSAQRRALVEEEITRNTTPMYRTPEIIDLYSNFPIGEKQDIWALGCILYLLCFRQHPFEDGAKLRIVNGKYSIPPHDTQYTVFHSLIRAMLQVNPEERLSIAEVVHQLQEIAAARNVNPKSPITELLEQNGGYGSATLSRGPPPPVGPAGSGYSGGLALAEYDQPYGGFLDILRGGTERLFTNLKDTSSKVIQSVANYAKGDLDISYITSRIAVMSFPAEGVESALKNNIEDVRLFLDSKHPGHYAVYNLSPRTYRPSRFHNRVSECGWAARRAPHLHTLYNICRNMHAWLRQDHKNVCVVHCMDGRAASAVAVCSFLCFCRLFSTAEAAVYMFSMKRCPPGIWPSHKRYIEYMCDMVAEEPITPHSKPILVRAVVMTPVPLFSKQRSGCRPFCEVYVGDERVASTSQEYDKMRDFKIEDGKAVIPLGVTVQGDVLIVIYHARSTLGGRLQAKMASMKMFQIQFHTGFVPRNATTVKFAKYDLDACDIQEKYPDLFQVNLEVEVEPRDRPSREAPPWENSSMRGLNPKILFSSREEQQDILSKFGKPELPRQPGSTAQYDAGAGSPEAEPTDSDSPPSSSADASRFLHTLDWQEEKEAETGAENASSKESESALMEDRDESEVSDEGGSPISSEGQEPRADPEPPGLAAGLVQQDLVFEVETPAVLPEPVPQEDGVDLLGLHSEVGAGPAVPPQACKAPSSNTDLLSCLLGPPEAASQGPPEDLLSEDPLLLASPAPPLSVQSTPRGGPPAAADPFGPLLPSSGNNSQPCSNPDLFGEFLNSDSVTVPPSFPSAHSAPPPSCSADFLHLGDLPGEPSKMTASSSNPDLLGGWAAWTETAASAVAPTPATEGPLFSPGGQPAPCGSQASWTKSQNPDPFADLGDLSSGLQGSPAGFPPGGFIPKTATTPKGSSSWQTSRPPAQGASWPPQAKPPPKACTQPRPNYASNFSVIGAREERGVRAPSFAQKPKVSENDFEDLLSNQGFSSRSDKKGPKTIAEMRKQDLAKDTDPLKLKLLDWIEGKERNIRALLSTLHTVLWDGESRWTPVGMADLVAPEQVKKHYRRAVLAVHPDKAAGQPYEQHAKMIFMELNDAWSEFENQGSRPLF
Description: Kd select analysis (DiscoverX). As for the experimental part:
as §1

Assay [5] concerns the target T5, PI4KB (Homo sapiens, UniProt Q9UBF8).
T5 construct: T7 phage fusion (kinase-tagged phage); purchased DiscoverX; host or cells: BL21-derived E. coli (T7 phage)
Description: Kd select analysis (DiscoverX). The protocol: as §1

Assay [6] deals with T6, RIOK2 (Homo sapiens, UniProt Q9BVS4).
T6 construct: T7 phage fusion (kinase-tagged phage); purchased DiscoverX; host or cells: BL21-derived E. coli (T7 phage)
T6 sequence (Q9BVS4 whole entry, the tested form may be a part): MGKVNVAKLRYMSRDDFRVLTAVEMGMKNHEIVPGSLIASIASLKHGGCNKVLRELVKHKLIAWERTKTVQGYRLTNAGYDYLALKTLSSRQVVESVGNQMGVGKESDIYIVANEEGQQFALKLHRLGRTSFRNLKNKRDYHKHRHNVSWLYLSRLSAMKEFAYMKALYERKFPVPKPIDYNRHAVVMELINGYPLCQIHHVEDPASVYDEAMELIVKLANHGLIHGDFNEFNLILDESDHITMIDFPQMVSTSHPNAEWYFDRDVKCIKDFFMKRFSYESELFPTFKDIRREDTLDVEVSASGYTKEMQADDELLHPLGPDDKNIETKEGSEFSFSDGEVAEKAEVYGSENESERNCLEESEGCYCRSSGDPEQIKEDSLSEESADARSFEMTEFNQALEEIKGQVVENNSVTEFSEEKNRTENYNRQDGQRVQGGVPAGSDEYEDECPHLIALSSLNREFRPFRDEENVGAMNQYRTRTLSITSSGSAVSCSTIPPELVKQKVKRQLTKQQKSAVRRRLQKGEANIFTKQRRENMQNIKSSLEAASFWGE
Nature of the assay: Kd select analysis (DiscoverX). The protocol:
as §1

Assay [7] addresses T7, MKNK2 (Homo sapiens, UniProt Q9HBH9).
T7 construct: purchased DiscoverX (KINOMEscan)
Description: Kd select analysis (DiscoverX). As for the experimental part:
as §1

The target in assay [8] is T8, MYO3B (Homo sapiens, UniProt Q8WXR4).
T8 construct: purchased DiscoverX (KINOMEscan)
T8 sequence (Q8WXR4 whole entry): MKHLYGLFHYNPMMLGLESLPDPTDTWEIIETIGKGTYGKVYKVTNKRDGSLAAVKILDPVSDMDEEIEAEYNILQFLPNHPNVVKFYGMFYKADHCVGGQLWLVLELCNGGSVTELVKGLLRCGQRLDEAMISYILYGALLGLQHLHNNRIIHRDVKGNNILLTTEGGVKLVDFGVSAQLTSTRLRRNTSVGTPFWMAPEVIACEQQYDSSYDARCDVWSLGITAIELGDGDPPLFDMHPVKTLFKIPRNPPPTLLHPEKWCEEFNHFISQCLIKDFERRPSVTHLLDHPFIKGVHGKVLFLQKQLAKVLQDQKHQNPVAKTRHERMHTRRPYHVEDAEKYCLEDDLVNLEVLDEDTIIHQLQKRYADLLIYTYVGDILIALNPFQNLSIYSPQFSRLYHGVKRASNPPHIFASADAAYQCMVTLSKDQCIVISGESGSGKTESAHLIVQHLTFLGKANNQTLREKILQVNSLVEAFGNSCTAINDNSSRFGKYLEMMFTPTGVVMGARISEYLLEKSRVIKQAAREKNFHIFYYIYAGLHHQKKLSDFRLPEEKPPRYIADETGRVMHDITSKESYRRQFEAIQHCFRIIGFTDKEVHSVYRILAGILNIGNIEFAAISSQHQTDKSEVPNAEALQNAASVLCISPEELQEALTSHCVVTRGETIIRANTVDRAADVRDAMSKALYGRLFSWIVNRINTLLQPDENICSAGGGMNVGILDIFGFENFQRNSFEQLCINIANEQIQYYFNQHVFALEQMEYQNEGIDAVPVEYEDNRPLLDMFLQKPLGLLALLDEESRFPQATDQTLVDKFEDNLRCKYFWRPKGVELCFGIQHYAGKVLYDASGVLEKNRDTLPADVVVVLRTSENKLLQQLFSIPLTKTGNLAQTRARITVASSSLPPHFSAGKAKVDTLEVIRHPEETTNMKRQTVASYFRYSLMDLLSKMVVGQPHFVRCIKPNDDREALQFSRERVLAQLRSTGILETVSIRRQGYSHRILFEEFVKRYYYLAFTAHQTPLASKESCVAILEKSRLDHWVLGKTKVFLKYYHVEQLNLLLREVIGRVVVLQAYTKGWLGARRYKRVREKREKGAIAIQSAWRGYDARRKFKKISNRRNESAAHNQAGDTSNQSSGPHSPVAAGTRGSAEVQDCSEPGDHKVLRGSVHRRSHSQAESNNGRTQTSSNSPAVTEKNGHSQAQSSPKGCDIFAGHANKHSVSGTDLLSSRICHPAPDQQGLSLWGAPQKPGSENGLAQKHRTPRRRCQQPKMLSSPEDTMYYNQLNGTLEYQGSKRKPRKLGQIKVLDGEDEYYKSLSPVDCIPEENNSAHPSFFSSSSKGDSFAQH
Nature of the assay: kinome scan. The note with it: 10 µM.

The mark [9] stands for this setting: sub-micromolar affinity, read-out: Kd.

Like-named read-outs stand apart in the source and are kept apart here.

T5 sequence (Q9UBF8 whole entry, the tested form may be a part): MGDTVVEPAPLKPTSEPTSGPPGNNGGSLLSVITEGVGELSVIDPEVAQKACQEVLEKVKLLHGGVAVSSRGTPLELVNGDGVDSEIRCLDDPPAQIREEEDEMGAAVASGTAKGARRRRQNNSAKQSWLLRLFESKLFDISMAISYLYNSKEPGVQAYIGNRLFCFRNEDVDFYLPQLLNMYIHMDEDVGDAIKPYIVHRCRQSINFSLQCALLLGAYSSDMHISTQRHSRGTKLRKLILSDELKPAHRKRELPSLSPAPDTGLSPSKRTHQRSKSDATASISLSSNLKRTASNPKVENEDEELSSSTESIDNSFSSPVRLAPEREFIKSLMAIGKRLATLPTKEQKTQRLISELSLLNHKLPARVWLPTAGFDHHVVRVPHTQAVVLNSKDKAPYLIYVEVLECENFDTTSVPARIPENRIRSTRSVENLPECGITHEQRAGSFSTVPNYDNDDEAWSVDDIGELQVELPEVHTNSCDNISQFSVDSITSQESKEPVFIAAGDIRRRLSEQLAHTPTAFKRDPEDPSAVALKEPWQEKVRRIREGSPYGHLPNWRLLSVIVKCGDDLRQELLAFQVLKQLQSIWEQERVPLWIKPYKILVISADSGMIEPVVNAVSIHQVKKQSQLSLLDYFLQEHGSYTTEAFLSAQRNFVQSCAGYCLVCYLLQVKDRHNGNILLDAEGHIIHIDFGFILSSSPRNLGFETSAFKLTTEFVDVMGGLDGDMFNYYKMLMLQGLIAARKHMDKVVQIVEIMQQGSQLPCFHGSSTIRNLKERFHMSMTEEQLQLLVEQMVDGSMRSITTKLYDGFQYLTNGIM
T7 sequence (Q9HBH9 whole entry): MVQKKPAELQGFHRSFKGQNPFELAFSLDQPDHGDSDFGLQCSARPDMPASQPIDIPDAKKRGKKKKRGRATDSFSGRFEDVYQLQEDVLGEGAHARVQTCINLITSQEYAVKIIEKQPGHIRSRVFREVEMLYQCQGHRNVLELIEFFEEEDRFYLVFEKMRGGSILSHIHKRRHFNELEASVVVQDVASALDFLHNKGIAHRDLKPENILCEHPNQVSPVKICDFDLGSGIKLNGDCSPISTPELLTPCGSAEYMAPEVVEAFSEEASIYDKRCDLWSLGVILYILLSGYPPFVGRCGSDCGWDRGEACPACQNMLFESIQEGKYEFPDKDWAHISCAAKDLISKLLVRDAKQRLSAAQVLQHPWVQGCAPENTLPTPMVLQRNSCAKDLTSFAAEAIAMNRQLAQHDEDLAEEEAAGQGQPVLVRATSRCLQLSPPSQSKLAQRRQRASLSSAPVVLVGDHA
T1 sequence (Q14164 whole entry): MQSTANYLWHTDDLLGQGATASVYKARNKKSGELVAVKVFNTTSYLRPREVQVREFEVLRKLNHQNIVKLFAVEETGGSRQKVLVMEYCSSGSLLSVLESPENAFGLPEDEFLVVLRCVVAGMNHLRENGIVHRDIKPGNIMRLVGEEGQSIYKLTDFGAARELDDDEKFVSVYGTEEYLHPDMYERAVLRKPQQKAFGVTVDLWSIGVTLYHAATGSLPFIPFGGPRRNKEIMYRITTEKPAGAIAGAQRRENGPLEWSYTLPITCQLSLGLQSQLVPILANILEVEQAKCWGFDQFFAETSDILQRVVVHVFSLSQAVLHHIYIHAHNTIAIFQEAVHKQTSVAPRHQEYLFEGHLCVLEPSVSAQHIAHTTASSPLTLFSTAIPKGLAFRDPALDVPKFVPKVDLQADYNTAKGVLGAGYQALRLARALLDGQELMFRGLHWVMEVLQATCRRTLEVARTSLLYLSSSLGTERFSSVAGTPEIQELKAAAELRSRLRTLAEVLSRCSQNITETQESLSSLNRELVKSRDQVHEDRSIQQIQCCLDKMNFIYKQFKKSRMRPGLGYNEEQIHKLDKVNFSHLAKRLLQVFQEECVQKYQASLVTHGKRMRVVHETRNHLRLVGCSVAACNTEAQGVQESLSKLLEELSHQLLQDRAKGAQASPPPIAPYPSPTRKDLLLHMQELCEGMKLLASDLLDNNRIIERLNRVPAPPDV
T2 sequence (O00444 whole entry): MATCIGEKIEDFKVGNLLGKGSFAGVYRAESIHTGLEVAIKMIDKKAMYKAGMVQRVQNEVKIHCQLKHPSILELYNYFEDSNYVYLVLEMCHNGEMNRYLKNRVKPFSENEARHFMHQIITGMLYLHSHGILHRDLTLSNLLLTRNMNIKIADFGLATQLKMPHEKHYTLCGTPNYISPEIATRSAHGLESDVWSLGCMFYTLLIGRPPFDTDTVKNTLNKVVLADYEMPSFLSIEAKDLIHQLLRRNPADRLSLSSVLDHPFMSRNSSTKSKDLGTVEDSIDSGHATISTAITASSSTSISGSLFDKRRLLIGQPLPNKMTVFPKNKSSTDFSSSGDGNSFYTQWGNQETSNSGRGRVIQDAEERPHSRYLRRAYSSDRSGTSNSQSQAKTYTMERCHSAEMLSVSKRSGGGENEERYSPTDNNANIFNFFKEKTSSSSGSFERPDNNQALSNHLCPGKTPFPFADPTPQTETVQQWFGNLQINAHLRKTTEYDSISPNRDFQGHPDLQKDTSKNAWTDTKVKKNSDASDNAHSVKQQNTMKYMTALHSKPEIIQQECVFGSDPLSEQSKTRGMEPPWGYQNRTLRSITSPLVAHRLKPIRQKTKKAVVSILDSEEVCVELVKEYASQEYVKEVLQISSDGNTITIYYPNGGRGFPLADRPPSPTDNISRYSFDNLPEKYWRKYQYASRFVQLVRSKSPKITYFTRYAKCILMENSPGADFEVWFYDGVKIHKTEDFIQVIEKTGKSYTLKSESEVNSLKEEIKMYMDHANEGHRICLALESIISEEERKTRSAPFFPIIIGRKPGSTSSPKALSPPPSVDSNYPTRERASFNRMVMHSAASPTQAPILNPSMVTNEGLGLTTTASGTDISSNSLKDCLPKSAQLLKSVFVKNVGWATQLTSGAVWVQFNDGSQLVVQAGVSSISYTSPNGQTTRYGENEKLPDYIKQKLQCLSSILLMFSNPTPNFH

What is called Kd is a measure of binding affinity in units of concentration. `Nc1ccc(N=Nc2ccccc2)c(N)n1` [phenazopyridine, 2,6-diamino-3-(phenylazo)pyridine]: the kinase inhibition in assay [1] was 72; in assay [2] it was 89; in assay [8], 95. In addition, the Kd is 5000 nM in assay [3]; 760 nM in assay [4] (Phenazopyridine Kd (nM)); less than 1000 nM in assay [4] (setting [9]); 730 nM in assay [5] (Phenazopyridine Kd (nM)); less than 1000 nM in assay [5] (setting [9]); 1000 nM in assay [6]. This compound also returned a Kd in assay [7] of 2100 nM.
